Assay results as given in patent US6589988B1, “Pharmaceutical composition with antitumor activity on the basis of carboplatin” (Pliva-Lachema, a.s., priority 1998, dated 2003).

Experiments:
Format in all cases: physicochemical
[1] = Decomposition rates of carboplatin calculated from equation /1-7/ (Arrhenius evaluation); details: for calculated decomposition rate of carboplatin (r) / rate increase: 25° C.; for calculated decomposition rate of carboplatin (r): from equation /1-7/
Protocol: After evaluation of Arrhenius equation, the activation energy EA was calculated:
For the reference temperature of 35° C., at which the best determination coefficient has been obtained (R^2=0.99), the following dependence of the decomposition rate of carboplatin on the concentration of the present 1,1-cyclobutanedicarboxylic acid and on the temperature may be obtained from the equations /1-5/ and /1-6/: [formula]
wherein r is expressed in mol·m^−3·s^−1 and CCBDCA is expressed in mol·m^−3.
Based on the equation /1-7/, it is possible to calculate decomposition rates of carboplatin at the temperature of 25° C. and for different concentrations of 1,1-cyclobutanedicarboxylic acid: […]

[2] = Decomposition rate of carboplatin in aqueous solution in dependence on the concentration of 1,1-cyclobutanedicarboxylic acid; details: for decomposition rate of carboplatin (r): carboplatin 10.0 mg·ml^−1
Protocol: The rate of hydrolysis of carboplatin to a monoaquacomplex of the formula (1) has been presumed to be of the first order in relation to carboplatin concentration and independent to water concentration: [formula]
Dependences on concentration according to equations /1-2/ and /1-3/ were evaluated by linear regression and the rate constant and/or the reaction rate of the carboplatin decomposition have been calculated.
Study of the decomposition rate of carboplatin in dependence on the concentration of 1,1-cyclobutanedicarboxylic acid.
Mean starting concentration of carboplatin was 10.0 mg·ml^−1. Starting concentrations of 1,1-cyclobutanedicarboxylic acid were 0.017, 0.129, 1.189 and 14.804 mg·ml^−1. The temperature and relative humidity during storage was 25° C./60% and 35° C./60%. The vials with samples were stored stopper upright.
The decrease of carboplatin content was calculated as a difference of carboplatin content between a reference and measured sample. The concentration data were evaluated according to equation /1-2/, whereby, due to a good linear relation, the data were evaluated by linear regression.

[3] = as above; details: 0.1 M phosphate buffer at 37° C. versus 1.4·10^−4M CBDCA-buffer at 40° C.

N.N.O=C([O-])C1(C(=O)[O-])CCC1.[Pt+2] [carboplatin, cis-diammin-1,1-cyclobutanedicarboxylatoplatinum(II) complex]
calculated decomposition rate of carboplatin (r) ([1]; CBDCA 0.005 mg/ml): 4.48·10^−9 mol·m^−3·s^−1
calculated decomposition rate of carboplatin (r) ([1]; CBDCA 0.150 mg/ml (as in Ribocarbol L)): 4.58·10^−9 mol·m^−3·s^−1
rate increase ([1]; CBDCA 0.150 mg/ml versus 0.005 mg/ml): 2.2%
calculated decomposition rate of carboplatin (r) ([1]; CBDCA 0.250 mg/ml (lower limit of EP 642 792)): 4.65·10^−9 mol·m^−3·s^−1
rate increase ([1]; CBDCA 0.250 mg/ml versus 0.005 mg/ml): 4%
activation energy EA of carboplatin decomposition ([1]; Arrhenius equation, from rates at 25 and 35° C.): 190 000 J·mol^−1
increase of the decomposition rate of carboplatin ([2]; enhancement of temperature of 10° C.): approximately tenfold
decomposition rate of carboplatin (r) ([2]; storage 25° C./60% RH, CBDCA 0.017 mg·ml^−1): 4.0 · 10^−9 mol·m^−3·s^−1
decomposition rate of carboplatin (r) ([2]; storage 25° C./60% RH, CBDCA 0.129 mg·ml^−1): 4.0 · 10^−9 mol·m^−3·s^−1
decomposition rate of carboplatin (r) ([2]; storage 25° C./60% RH, CBDCA 1.189 mg·ml^−1): 9.4 · 10^−9 mol·m^−3·s^−1
decomposition rate of carboplatin (r) ([2]; storage 25° C./60% RH, CBDCA 14.804 mg·ml^−1): 2.2 · 10^−8 mol·m^−3·s^−1
decomposition rate of carboplatin (r) ([2]; storage 35° C./60% RH, CBDCA 0.017 mg·ml^−1): 4.9 · 10^−8 mol·m^−3·s^−1
decomposition rate of carboplatin (r) ([2]; storage 35° C./60% RH, CBDCA 0.129 mg·ml^−1): 5.1 · 10^−8 mol·m^−3·s^−1
decomposition rate of carboplatin (r) ([2]; storage 35° C./60% RH, CBDCA 1.189 mg·ml^−1): 7.3 · 10^−8 mol·m^−3·s^−1
decomposition rate of carboplatin (r) ([2]; storage 35° C./60% RH, CBDCA 14.804 mg·ml^−1): 1.7 · 10^−7 mol·m^−3·s^−1
rate constant k, ratio [3]: approximately 200 times
